Holding throughout (test): Kinase panel profiling at 1 µmol/L (MSA or IMAP), percentage inhibition
What all share (format): biochemical

In experiment [1] the target is panel of 255 wild-type kinases (Homo sapiens, UniProt Q86Z02). The settings on record: read-out: %-inhibition at 1 µmol/L, HIPK1.
In experiment [2] the target is panel of 255 wild-type kinases (Homo sapiens, UniProt Q13554). The settings on record: read-out: %-inhibition CaMK2β.
The target in experiment [3] is T1, panel of 255 wild-type kinases (Homo sapiens, UniProt Q8IWQ3).
T1 sequence (Q8IWQ3 1-736): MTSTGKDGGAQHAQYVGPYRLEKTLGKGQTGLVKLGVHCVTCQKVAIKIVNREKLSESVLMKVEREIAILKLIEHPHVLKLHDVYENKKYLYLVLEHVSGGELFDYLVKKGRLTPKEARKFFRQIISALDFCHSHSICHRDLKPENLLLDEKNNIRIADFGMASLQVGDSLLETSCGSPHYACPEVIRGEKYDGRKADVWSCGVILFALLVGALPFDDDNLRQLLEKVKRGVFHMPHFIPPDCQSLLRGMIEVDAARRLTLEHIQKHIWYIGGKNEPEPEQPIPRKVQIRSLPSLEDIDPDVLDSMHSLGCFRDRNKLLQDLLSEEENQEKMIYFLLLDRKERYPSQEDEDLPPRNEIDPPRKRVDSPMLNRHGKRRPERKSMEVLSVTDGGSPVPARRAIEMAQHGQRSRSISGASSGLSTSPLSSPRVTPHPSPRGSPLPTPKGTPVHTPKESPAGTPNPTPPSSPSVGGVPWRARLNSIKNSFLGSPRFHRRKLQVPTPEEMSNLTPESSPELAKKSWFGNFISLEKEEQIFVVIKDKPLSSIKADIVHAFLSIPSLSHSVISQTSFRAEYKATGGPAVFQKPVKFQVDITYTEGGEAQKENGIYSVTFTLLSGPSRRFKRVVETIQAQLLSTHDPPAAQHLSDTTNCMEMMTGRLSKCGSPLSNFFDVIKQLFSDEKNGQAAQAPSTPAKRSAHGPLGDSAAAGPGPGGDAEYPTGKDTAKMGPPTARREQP
The settings on record: read-out: %-inhibition BRSK2.

Experiment [4] has as its target panel of 255 wild-type kinases (Homo sapiens, UniProt P49759). The settings on record: read-out: %-inhibition at 1 µmol/L, CLK1.
The target of experiment [5] is T2, panel of 255 wild-type kinases (Homo sapiens, UniProt Q13976).
T2 sequence (Q13976 1-671): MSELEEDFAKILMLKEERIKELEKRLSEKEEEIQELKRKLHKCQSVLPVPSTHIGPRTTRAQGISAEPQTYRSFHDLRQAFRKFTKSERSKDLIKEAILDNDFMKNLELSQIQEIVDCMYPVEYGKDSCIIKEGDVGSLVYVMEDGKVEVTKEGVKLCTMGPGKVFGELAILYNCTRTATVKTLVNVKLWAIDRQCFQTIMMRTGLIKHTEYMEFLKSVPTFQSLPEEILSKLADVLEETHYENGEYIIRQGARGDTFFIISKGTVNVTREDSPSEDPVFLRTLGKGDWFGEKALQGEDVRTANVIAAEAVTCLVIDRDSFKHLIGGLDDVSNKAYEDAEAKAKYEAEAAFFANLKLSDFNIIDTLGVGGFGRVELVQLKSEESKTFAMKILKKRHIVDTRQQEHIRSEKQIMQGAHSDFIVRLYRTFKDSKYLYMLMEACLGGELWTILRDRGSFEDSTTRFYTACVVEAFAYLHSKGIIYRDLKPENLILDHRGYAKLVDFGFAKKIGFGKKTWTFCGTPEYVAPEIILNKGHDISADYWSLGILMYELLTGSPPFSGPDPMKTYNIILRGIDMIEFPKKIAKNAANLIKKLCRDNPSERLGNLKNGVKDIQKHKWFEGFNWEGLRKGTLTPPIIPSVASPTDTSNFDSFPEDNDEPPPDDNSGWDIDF
The settings on record: read-out: %-inhibition at 1 µmol/L, PGK.

Experiment [6] addresses panel of 255 wild-type kinases (Homo sapiens, UniProt Q15418). The settings on record: read-out: %-inhibition at 1 µmol/L, RSK1.
Experiment [7] concerns the target panel of 255 wild-type kinases (Homo sapiens, UniProt P17612). The settings on record: read-out: %-inhibition at 1 µmol/L, PKACα.
Experiment [8] concerns the target T3, panel of 255 wild-type kinases (Homo sapiens, UniProt O00141).
T3 sequence (O00141 1-431): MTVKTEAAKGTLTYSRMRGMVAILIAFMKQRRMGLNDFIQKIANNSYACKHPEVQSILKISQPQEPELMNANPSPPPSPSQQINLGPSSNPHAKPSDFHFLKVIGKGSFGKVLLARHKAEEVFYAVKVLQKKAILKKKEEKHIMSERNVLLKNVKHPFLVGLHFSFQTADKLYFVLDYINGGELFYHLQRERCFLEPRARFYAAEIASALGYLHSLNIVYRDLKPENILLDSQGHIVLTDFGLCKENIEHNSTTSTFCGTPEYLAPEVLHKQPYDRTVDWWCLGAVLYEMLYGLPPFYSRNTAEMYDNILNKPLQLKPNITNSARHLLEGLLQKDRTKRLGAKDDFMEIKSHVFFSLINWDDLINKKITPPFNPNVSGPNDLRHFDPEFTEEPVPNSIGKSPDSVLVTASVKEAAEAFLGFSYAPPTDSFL
The settings on record: read-out: %-inhibition at 1 µmol/L, SGK.

The target of experiment [9] is panel of 255 wild-type kinases (Homo sapiens, UniProt Q13177). The settings on record: read-out: %-inhibition, PAK2.
The target of experiment [10] is panel of 255 wild-type kinases (Homo sapiens, UniProt P17252). The settings on record: read-out: %-inhibition at 1 µmol/L, PKCα.
In experiment [11] the target is panel of 255 wild-type kinases (Homo sapiens, UniProt P49760). The settings on record: read-out: %-inhibition at 1 µmol/L, CLK2.
[12] abbreviates: kinase HIPK1, 1 µmol/L single concentration.
Setting [13] is: CaMK2β kinase assay, 1 µmol/L single concentration.
Setting [14] is: BRSK2 kinase assay, 1 µmol/L single concentration.
Where [15] appears, read: kinase CLK1, 1 µmol/L single concentration.
Setting [16] is: kinase PGK, 1 µmol/L single concentration.
Where [17] appears, read: kinase RSK1, 1 µmol/L single concentration.
Setting [18] is: kinase PKACα, 1 µmol/L single concentration.
Setting [19] is: kinase SGK, 1 µmol/L single concentration.
The mark [20] stands for this setting: PAK2, 1 µmol/L single concentration.
Where [21] appears, read: kinase PKCα, 1 µmol/L single concentration.
Where [22] appears, read: kinase CLK2, 1 µmol/L single concentration.

Where two headings read alike, the source gives them in different places.

Take `Cc1nc(NC(=O)N2CCC[C@H]2C(N)=O)sc1-c1ccnc(C(C)(C)C(F)(F)F)c1` [alpelisib]: the inhibition at 1 µM was 9% in [1] (setting [12]); -7% in experiment [2] (setting [13]); 14% in [3] (setting [14]); 59% in experiment [4] (setting [15]); -3% in experiment [5] (setting [16]); -0.527% in experiment [6] (setting [17]). The inhibition at 1 µM in experiment [7] (setting [18]) is -13%; in experiment [8] (setting [19]), -5.64%; in experiment [9] (setting [20]) it was -7%; in experiment [10] (setting [21]), 1.21%; in [11] (setting [22]), 85%.

For `Cn1cc(-c2cc3c(N4CCN(c5ncc([C@@](C)(N)c6ccc(F)cc6)cn5)CC4)ncnn3c2)cn1` [avapritinib], the inhibition at 1 µM in experiment [1] (setting [12]) is 1.58%; in experiment [2] (setting [13]), 0.895%; in [3] (setting [14]) it was 11%; in experiment [5] (setting [16]), -2.58%; in experiment [6] (setting [17]), -7%; in experiment [7] (setting [18]), -20%. Also, the inhibition at 1 µM was 0.775% in [8] (setting [19]), -4.42% in experiment [9] (setting [20]), 5% in experiment [10] (setting [21]) and 11% in [11] (setting [22]).

For the compound `Cn1cnc2c(F)c(Nc3ccc(Br)cc3F)c(C(=O)NOCCO)cc21` [binimetinib], the inhibition at 1 µM is 0.44% in [1] (setting [12]); 2.18% in experiment [2] (setting [13]); -13% in [3] (setting [14]); -1.7% in experiment [4] (setting [15]); -3% in [5] (setting [16]); -5.55% in [6] (setting [17]). Moreover, the inhibition at 1 µM in experiment [7] (setting [18]) was -12%; in [8] (setting [19]), 5%; in experiment [9] (setting [20]) it was 12%; in experiment [10] (setting [21]) it was -0.116%; in experiment [11] (setting [22]) it was -2.25%.

As to `CNC(=O)c1ccc(-c2cnc3ncc(Cc4ccc5ncccc5c4)n3n2)cc1F` [capmatinib], the inhibition at 1 µM in [1] is -2.58%; in experiment [2], 0.692%; in experiment [3], 1%; in experiment [4], 8%; in experiment [5], -4.5%; in [6] it was 1.52%. In addition, the inhibition at 1 µM in experiment [7] is -28%; in experiment [8], -0.731%; in experiment [9] it was -1.68%; in experiment [10] it was -3.51%; in [11] it was 7%.

With `COc1cc2ncnc(Nc3ccc(F)c(Cl)c3)c2cc1NC(=O)/C=C/CN1CCCCC1` [dacomitinib], the inhibition at 1 µM came out at 3.42% in [1] (setting [12]); 2.54% in experiment [2] (setting [13]); 6.47% in experiment [3] (setting [14]); 19% in [4] (setting [15]); 4% in experiment [5] (setting [16]); 4.37% in experiment [6] (setting [17]). The inhibition at 1 µM in experiment [7] (setting [18]) was -11%; in experiment [8] (setting [19]) it was -6%; in [9] (setting [20]) it was 2.5%; in [10] (setting [21]), -4.53%; in experiment [11] (setting [22]) it was -0.6%.

Consider `C[C@H](Nc1ncnc2nc[nH]c12)c1cc2cccc(Cl)c2c(=O)n1-c1ccccc1` [duvelisib], for which the inhibition at 1 µM in experiment [1] (setting [12]) was 0.739%; in [2] (setting [13]) it was -7.37%; in [3] (setting [14]) it was 11%; in experiment [4] (setting [15]), -0.419%; in [5] (setting [16]), 1.63%; in experiment [6] (setting [17]), -0.755%. In addition, the inhibition at 1 µM in [7] (setting [18]) was -7.56%; in experiment [8] (setting [19]) it was -3.47%; in experiment [9] (setting [20]) it was -1%; in experiment [10] (setting [21]), 0.321%; in experiment [11] (setting [22]) it was 3.58%.

With `CN1CCN(c2ccc(C(=O)Nc3n[nH]c4ccc(Cc5cc(F)cc(F)c5)cc34)c(NC3CCOCC3)c2)CC1` [entrectinib], the inhibition at 1 µM in [1] (setting [12]) is 11%; in experiment [2] (setting [13]), 13%; in experiment [3] (setting [14]) it was 18%; in experiment [4] (setting [15]), 60%; in [7] (setting [18]), -7%; in experiment [8] (setting [19]), -5.65%. For the same compound, the inhibition at 1 µM in [9] (setting [20]) was -10%; in experiment [10] (setting [21]), 20%; in experiment [11] (setting [22]), 28%.

Turning to `CCc1nc(C(N)=O)c(Nc2ccc(N3CCC(N4CCN(C)CC4)CC3)c(OC)c2)nc1NC1CCOCC1` [gilteritinib], the inhibition at 1 µM came out at 71% in experiment [1] (setting [12]); 24% in experiment [2] (setting [13]); 23% in [3] (setting [14]); 96% in experiment [4] (setting [15]); 41% in experiment [5] (setting [16]); 54% in [6] (setting [17]). For the same compound, the inhibition at 1 µM stood at 7% in [7], 8.52% in [8] (setting [19]), 10% in [9] (setting [20]) and 39% in experiment [11] (setting [22]).

As for `CCN1CCN(c2ccc(Nc3cc(N(C)C(=O)Nc4c(Cl)c(OC)cc(OC)c4Cl)ncn3)cc2)CC1` [infigratinib], the inhibition at 1 µM in experiment [1] (setting [12]) was -4.25%; in experiment [3] (setting [14]), 2.65%; in experiment [4] (setting [15]) it was 10%; in experiment [5] (setting [16]), -2%; in experiment [6] (setting [17]) it was -3%; in [7] (setting [18]), -28%. In addition, the inhibition at 1 µM in experiment [8] (setting [19]) is -1.45%; in experiment [9] (setting [20]) it was 1.66%; in experiment [10] (setting [21]), -4%; in experiment [11] (setting [22]) it was 15%.
